Test results: PubChem BioAssay AID2305 (GlaxoSmithKline (GSK), 2010)

These compounds were tested on P. falciparum 3D7 growth, pLDH absorbance (assay: P. falciparum 3D7 growth inhibition, dose response, strain 3D7 (AID 2305)).

Structure (SMILES) | IC50
CCOC(=O)c1ccc(COc2ccc(C)nc2)cc1 | 540 nM
CCN(CC)CCN(Cc1ccc(-c2ccc(C(F)(F)F)cc2)cc1)C(=O)Cn1cc(Cc2cnn(C)c2)c(=O)nc1/C=C/c1ccc(F)cc1 | 1060 nM
COc1cccc(C(=O)C2CC2CN2CC=C(c3c(C)[nH]c4ccccc34)CC2)c1 (stereo unspecified) | 710 nM
COc1ccc2nc(C)cc(NN=Cc3cccc([N+](=O)[O-])c3)c2c1 | 730 nM
CN(C)CCOc1cccc(-c2cnc(N)c(-c3nc4ccc(S(C)(=O)=O)cc4[nH]3)c2)c1 | 950 nM
Clc1cccc(C=NNc2nc(Nc3ccccc3)nc(Nc3ccccc3)n2)c1 | 840 nM
Cc1cc(C(=O)CN2C(=O)NC(C)(c3ccc4ccccc4c3)C2=O)c(C)n1Cc1ccco1 (stereo unspecified) | 660 nM
COc1cc(OC)cc(-c2nn(-c3ccc([N+](=O)[O-])cc3C#N)c(=S)n2CC2CCCO2)c1 (stereo unspecified) | 850 nM
CC(CCCCCC(=O)Nc1ccc(CC(C)NCCc2cccc(Cl)c2)cc1)NCCc1cccc(Cl)c1 (stereo unspecified) | 950 nM
CS(=O)(=O)CCNCc1cc(-c2cc3ncnc(Nc4ccc(OCc5cccc(F)c5)c(Cl)c4)c3s2)cs1 | 330 nM
NS(=O)(=O)c1cccc(Br)c1 | 890 nM
O=C(NCc1ccco1)c1ccc(S(=O)(=O)c2ccc(Cl)cc2)cc1 | 450 nM
CCCC1N=C(N)N=C(N)N1c1ccccc1 (stereo unspecified) | 820 nM
C=CCOC(=O)N1CCC(CNCc2cccc(-c3ccc(-c4nc5c(C)cccc5[nH]4)s3)c2)C1 (stereo unspecified) | 250 nM
Cc1c(Cn2ncc(N3C[C@@H](C)N[C@@H](C)C3)c(Cl)c2=O)cccc1NC(=O)Nc1ccc(-c2ccccc2)cc1 | 600 nM
NC(N)=Nc1ccc(Cc2ccc(N=C(N)N)cc2)cc1 | 260 nM
Oc1ccccc1CN[C@@H]1CCCC[C@H]1NCc1ccccc1O | 950 nM
CCCCCCn1c(Sc2ccc(C#N)c([N+](=O)[O-])c2)nnc1-c1cc(OC)cc(OC)c1 | 770 nM
Cc1cc(NN=Cc2ccc(Cl)cc2)c2ccc(F)cc2n1 | 760 nM
Cc1cc(N(C)C2CCN(C)C2)nc(Nc2ccccc2Cl)n1 (stereo unspecified) | 750 nM
c1ccc(Oc2ccc(Nc3ccnc(Nc4ccc(OCCN5CCCCC5)cc4)n3)cc2)cc1 | 600 nM
O=C(/C=C/c1c(Cl)cccc1Cl)NC1CCC(CN2CCC(c3c[nH]c4ccncc34)CC2)CC1 (stereo unspecified) | 160 nM
CC(=NNC(=S)NCCc1ccccn1)c1ccccn1 | 320 nM
CCC(c1ccccc1)c1nn2c(-c3cccs3)nnc2s1 (stereo unspecified) | 170 nM

Structure (SMILES) | IC50
CC(C)(C)c1ccc(Cn2nc(C(=O)N3CCN(C(=O)C4CCCO4)CC3)c3ccccc32)cc1 (stereo unspecified) | 1320 nM
O=C(Nc1ccc(-c2cccc(-c3nc4ccc(F)cc4[nH]3)c2)cc1)Nc1ccc(Cl)c(Cl)c1 | 650 nM
CCCCCN1CCCC(NS(=O)(=O)c2ccc(C(=O)Nc3cccc(C(F)(F)F)c3)cc2)C1 (stereo unspecified) | 790 nM
COc1ccc(Nc2nc(N)c3cc(OC)c(OC)cc3n2)cc1OC | 730 nM
C[C@H](Cc1ccc(C(=O)OC(c2ccccc2)c2ccccc2)cc1)NC[C@H](O)c1ccccc1 | 180 nM
Cc1cc(Br)cnc1CCCCN=C1NC(=O)CN1C | 370 nM
Cc1cccc2[nH]c(-c3ccc(-c4ccc(CNCc5cccc(N)c5)cc4)cc3)nc12 | 570 nM
CN1CCCC1CCNc1ncc2c(-c3ccc(NC(=O)Nc4cc(C(F)(F)F)ccc4F)c(F)c3)nn(C)c2n1 (stereo unspecified) | 290 nM
CCc1cc(NC(=O)Nc2ccnc3ccccc23)ccc1OC | 140 nM
Cc1c(F)cc(C(=O)NC2CC2)cc1-c1ccc2c(cnn2S(=O)(=O)c2ccc(C#N)cc2)c1 | 100 nM
CC1CN(Cc2cccc(F)c2)CCN1c1ccc(NC(=O)c2cccs2)cc1 (stereo unspecified) | 450 nM
Nc1c2c(nc3ccc(Oc4ccc(Br)cc4Br)cc13)CCCC2 | 860 nM
COc1cccc(CN2CCCC(OC(c3ccccc3)c3ccccc3)C2)c1O (stereo unspecified) | 930 nM
CCCC(C)Nc1nc(C)cc(N[C@@H](CC(C)C)C(=O)NCCc2ccccc2)n1 (stereo partly specified) | 1360 nM
CCCCCCSc1nnc(COc2cccc3ccccc23)n1-c1ccc(OC)cc1 | 50 nM
CCc1cn2c3c(cc(C(=O)N[C@@H](Cc4ccccc4)[C@H](O)CNC4CC4)cc13)N(CC)S(=O)(=O)CC2 | 110 nM
Cc1ccc(S(=O)Cc2ccc(Cl)cc2)cc1 (stereo unspecified) | 200 nM
Cc1ccc(NC(=O)c2cc([N+](=O)[O-])ccc2NCc2cccnc2)cc1Cl | 1120 nM
O=C(/C=C/c1ccc(Cl)c(Cl)c1)NC1CCC(CN2CCC(c3nc4ccccc4s3)CC2)CC1 (stereo unspecified) | 1020 nM
Nc1ccc(-c2cc(Cl)cc(Cl)c2)cc1-c1cc2ccccc2[nH]1 | 690 nM
O=C1C[C@@H]([S@@](=O)Cc2nccs2)N1CCOCCCCCCc1ccc(Cl)cc1 | 1020 nM
N/C(=N/C(=NCCCCCCN=C(/N=C(/N)Nc1ccc(Cl)cc1)N1CCCCC1)N1CCCCC1)Nc1ccc(Cl)cc1 | 260 nM
O=C(Cc1cnc[nH]1)Nc1cccc(-c2ccc(-c3nc4ccc(F)cc4[nH]3)s2)c1 | 660 nM
Cc1cc(N[C@@H](Cc2ccccc2)C(=O)Nc2ccccc2)nc(NCCc2cccnc2)n1 | 1340 nM

Structure (SMILES) | IC50
Oc1ccc2[nH]c(-c3cccc(F)c3)nc2c1CN1CCC(O)(c2ccccc2)CC1 | 990 nM
O=C(Nc1ccc(OC2CCN(Cc3ccc(F)cc3)CC2)c(Cl)c1)c1ccoc1 | 1180 nM
O=C(NCc1cccc(C(F)(F)F)c1)c1ccc(CNC(=O)c2ccc(O)c(-c3ccc(Cl)c(Cl)c3)c2)cc1 | 840 nM
CNCCNCc1ccc(-c2ccc(-c3nc4ccccc4[nH]3)s2)cc1 | 860 nM
OCCN1CCN(Cc2cccc(-c3cccc(-c4nc5ccc(F)cc5[nH]4)c3)c2)CC1 | 710 nM
CCOC(=O)c1c(C)noc1Nc1ccc(OC)cc1 | 670 nM
CCOc1cc(C(=O)NCCCN2CCN(c3cccc(Cl)c3)CC2)ccc1-c1nc2cc(Cl)c(F)cc2[nH]1 | 870 nM
CS(=O)(=O)c1ccc(-n2nc(C(F)(F)F)cc2-c2ccc(/C=N/OCC(=O)O)o2)cc1 | 980 nM
COCCNCc1ccc(-c2ccc3c(Nc4ccc(F)cc4Cl)ccnc3c2)o1 | 210 nM
OC(CNc1ccnc(Nc2cccc(OCCCN3CCOCC3)c2)n1)c1ccccc1 (stereo unspecified) | 920 nM
FC(F)(F)c1ccc2nc(-c3cccc(-c4ccc(CNCCc5ccncc5)cc4)c3)[nH]c2c1 | 100 nM
CS(=O)(=O)Nc1ccc2[nH]cc(C3CCN(CCCCCNC(=O)/C=C/c4ccc(Cl)c(Cl)c4)CC3)c2c1 | 740 nM
COc1ccc(CCN2CC[C@H](Nc3nc(-c4ccc(F)c(F)c4)nc4ccccc34)C2)cc1S(N)(=O)=O | 790 nM
NC1=NC(c2ccccc2)(c2ccccc2)C(=O)N1Cc1ccc(-c2ccncc2)cc1 | 770 nM
COc1ccc(CCNCC(O)c2cccc(Br)c2)c(Cl)c1OC (stereo unspecified) | 1040 nM
CC(C)CCCC(C)(C)NC[C@@H](O)[C@H](Cc1ccccc1)NC(=O)c1cccc(OCC2CC2)c1 | 840 nM
CC1(C)CCCN(c2ncc(-c3cccc(CNCc4ccccc4O)c3)cn2)C1 | 890 nM
Cc1cccc(Cn2c(Cc3ccccc3)nnc2Sc2ccc([N+](=O)[O-])c(C#N)c2)c1 | 1140 nM
O=C(/C=C/c1ccccc1Cl)NC1CCC(CN2[C@@H]3CC[C@H]2CC(c2c[nH]c4ccccc24)C3)CC1 (stereo partly specified) | 710 nM
COC(=O)c1ccc(NC(=O)c2ccc(CCN3CCC(c4nc(COCC(F)(F)F)c(-c5ccc(F)cc5)o4)CC3)cc2)cc1 | 1040 nM
NCC(=O)c1cc2c(cc1N)OCCO2 | 1360 nM
COc1ccccc1CNc1ncc(-c2ccsc2)c(-c2nccs2)n1 | 330 nM
Cc1cc(NC2CCN(CC3CCCCC3)C2)nc(Nc2ccc(Cl)cc2)n1 (stereo unspecified) | 400 nM
